Reference: patent publication US20080233221A1, “Prostate cancer and benign prostatic hyperplasia treatments” (State of Oregon, priority 2007, published 2008)

Legend:
Assay type in all cases: cell-based, human
NFκB [1] = experiment: NFκB activation, transcription factor binding ELISA, nuclear extracts of BPH-1 cells; conditions: 20 μM, 48 h
Experimental: (§1) FIG. 5 sets forth data relating to xanthohumol and xanthoaurenol inhibit NFκB activation in nuclear extracts of BPH-1 cells. Cells were treated with XN or XAL for 48 h. (A) Cells were harvested by scraping and then subjected to nuclear extraction. NFκB activation was determined using transcription factor binding ELISA as described in Section 2. Equal protein loading was confirmed using β-actin. Results are representative of two or more separate experiments. (B) BPH-1 cells were treated with XN or XAL for 48 h and detection of p65 nuclear protein was performed with immunoblotting methods. (C) No inhibition of NFκB activation in treated PC3 cells. Results are mean±SD, n=3. **P<0.01.
(§2) NFκB Activity was measured using Trans AM NFκB p65/p50 Transcription Factor Assay Kit (Active Motif, CA). Cytosolic and nuclear extracts were prepared from cells by using Nuclear Extraction Kit (Active Motif, Carlsbad, Calif.). Nuclear extract samples (10 μg) were added to a 96 well plate with immobilized oligonucleotide containing the NFκB consensus site (5′-GGGACTTTCC-3′). Sample wells were incubated with primary antibody specific for NFκB, followed by incubation with an HRP-conjugated secondary antibody, followed by quantification at OD 580 using a plate reader (Molecular Devices, Sunnyvale, Calif.).

BPH-1 cells [2] = experiment: Cell viability by MTT assay in BPH-1 cells; conditions: BPH-1 cells, 48 h; for cell viability (number of viable cells): MTT
Experimental: (§3) Human benign prostate hyperplasia epithelial cells (BPH-1) were obtained from Dr. Simon W. Hayward (Vanderbilt University, Nashville, Tenn.) and malignant androgen-independent prostate cancer epithelial cells (PC-3) were obtained from American Type Tissue Collection (Manassas, Va.). Cells were grown and maintained in RPMI 1640 with glutamine (Mediatech, Inc., Herndon, Va.) supplemented with 5% (BPH-1) or 10% (PC-3) fetal bovine serum (Hyclone, Logan, Utah) and 1% penicillin-streptomycin (Mediatech, Inc., Herndon, Va.). All cell types were maintained in 5% CO2 at 37° C.
(§4) XN was isolated from hop cones as described previously (Stevens et al., J. Chromatogr. A 832 (1999) 97-107). Its oxidation product, xanthoaurenol (XAL), was prepared from xanthohumol (XN) by treatment with peroxynitrite. The structure of XAL was determined by mass spectrometry, NMR spectroscopy and X-ray diffraction analysis. Prenylflavonoids were dissolved in 100% methanol and were added to the culture medium at a final concentration of 2.5-200 μmol/L, depending on desired treatment. All treatments were done at approximately 50-70% confluency. As a control, methanol was added to culture medium equivalent to hop treatment.
(§5) Cells were seeded into 24-well plates (50,000 cells per well). After 24 h, cells were treated with either XN or XAL as described above. Cell viability was evaluated by MTT assay as described by Mossmann et al., J. Immunol. Methods 65 (1983) 55-63. Production of formazan product was detected in a Molecular Devices SpectraMax (Molecular Devices, Sunnyvale, Calif.) at 580 nm.

NFκB [3] = experiment: NFκB activation, transcription factor binding ELISA, PC3 cells
Experimental: as §1, §2

PC-3 cells [4] = experiment: Cell viability by MTT assay in PC-3 cells; conditions: PC3 cells, 48 h; for cell viability (number of viable cells): MTT
Experimental: as §3, §4, §5

PC-3 cells [5] = experiment: Multicaspase assay (SR-VAD-FMK/7AAD flow cytometry) in PC-3 cells; conditions: 48 h
Experimental: (§6) FIG. 3 sets forth data relating to xanthohumol and xanthoaurenol induction of caspase activity in BPH-1 and PC-3 cells. Cells were treated with XN or XAL for 48 h. Induction of apoptosis was measured using a multi-caspase assay. SR-VAD-FMK covalently binds caspases and positively stained cells were assessed by flow cytometry as a measure of caspase activation. 7-Amino-actinomycin D (7AAD), a nucleotide stain that only stains cells when membrane integrity is compromised, was used to differentiate between early and late apoptotic cells. SR-VAD-FMK(+) 7AAD(−) cells are undergoing early-mid apoptosis, […] late stage apoptotic cells. Values are mean±SD, n=3. *P<0.05, **P<0.01.
At various times after treatment with XN or XAL, adherent and floating cells were collected for analysis. Apoptosis was assessed using a flow cytometry based nexin and multicaspase assay kits (Guava Technologies, Burlingame, Calif.). The nexin assay is based on measurement of externalization of phosphatidyl serine, a common characteristic of cells undergoing apoptosis. The multicaspase assay is based on measurement of caspase enzymes activated during apoptosis. […] Cell populations were quantified using Guava personal cytometer (Guava Technologies, Burlingame, Calif.).

NFκB p65 = experiment: Immunoblot of p65 nuclear protein in BPH-1 cells; conditions: 48 h
Experimental: as §1
Cells were lysed in RIPA buffer and whole cell lysate protein concentrations were determined using a detergent-compatible protein assay (BioRad, CA). Proteins (15-35 μg) were separated by SDS-PAGE under standard conditions and were transferred to a nitrocellulose membrane (Biorad, CA) at 300 mA for 2 h. […] Protein was detected using chemiluminescence reagents (Pierce, Rockford, Ill.) with image analysis on Alpha Innotech photodocumentation system (Alpha Innotech, Hayward, Calif.).

BPH-1 cells [6] = experiment: Annexin V (nexin) apoptosis assay in BPH-1 cells; conditions: 20 μM
Experimental: FIG. 4 sets forth data relating to xanthohumol and xanthoaurenol induction of apoptosis in BPH-1 and PC-3 cells. Cells were treated with XN and XAL and apoptosis was detected using the Annexin V assay. Externalization of phosphatidyl serine, an early marker of apoptosis was detected by flow cytometry after staining with Annexin V-PE and 7AAD. Annexin V(+) 7AAD(−) cells are undergoing early apoptosis, and Annexin V(+) 7AAD(+) are undergoing late apoptosis. Values are mean±SD, n=3. *P<0.05, **P<0.01.
(§7) At various times after treatment with XN or XAL, adherent and floating cells were collected for analysis. Apoptosis was assessed using a flow cytometry based nexin and multicaspase assay kits (Guava Technologies, Burlingame, Calif.). The nexin assay is based on measurement of externalization of phosphatidyl serine, a common characteristic of cells undergoing apoptosis. The multicaspase assay is based on measurement of caspase enzymes activated during apoptosis. Cells were trypsinized, washed in D-PBS and stained with Annexin V, sulforhodamine-valyl-alanyl-aspartyl-fluoromethyl-ketone (SR-VAD-FMK), and 7-amino-actinomycin D (7AAD) according to the manufactures instructions. Cell populations were quantified using Guava personal cytometer (Guava Technologies, Burlingame, Calif.).

[7] = system: pro-apoptotic proteins Bax and p53 and anti-apoptotic protein Bcl-2; experiment: Western blot of Bax, p53 and Bcl-2 in whole cell lysates of BPH-1 cells; conditions: for expression of pro-apoptotic protein Bax / expression of pro-apoptotic protein p53: 10 and 20 μM; for expression of pro-apoptotic protein Bax / expression of pro-apoptotic protein p53 / expression of anti-apoptotic protein Bcl-2: 48 h
Experimental: FIG. 6 sets forth data relating to xanthohumol and xanthoaurenol induce expression of proapoptotic proteins p53 and bax, with down-regulation of antiapoptotic proteins bcl-2 in BPH-1 cells. Western blot of pro-apoptotic proteins Bax and p53 and anti-apoptotic protein Bcl-2 were performed from whole cell lysates of BPH-1 cells treated with XN and XAL for 48 h. Blots are representative of three individual experiments.
Cells were lysed in RIPA buffer and whole cell lysate protein concentrations were determined using a detergent-compatible protein assay (BioRad, CA). Proteins (15-35 μg) were separated by SDS-PAGE under standard conditions and were transferred to a nitrocellulose membrane (Biorad, CA) at 300 mA for 2 h. Antibody dilutions were as follows: Bax (BD Pharmingen, 1:500 dilution), Bcl-2 (Santa Cruz Biotechnology, 1:1000 dilution), p53 (Santa Cruz Biotechnology, 1:1000 dilution), NFκB p65 (Santa Cruz Biotechnology, 1:1000 dilution), actin (Sigma, 1:5000 dilution). Actin was used to confirm equal protein loading between samples. Protein was detected using chemiluminescence reagents (Pierce, Rockford, Ill.) with image analysis on Alpha Innotech photodocumentation system (Alpha Innotech, Hayward, Calif.).

BPH-1 cells [8] = experiment: Multicaspase assay (SR-VAD-FMK/7AAD flow cytometry) in BPH-1 cells; conditions: 48 h
Experimental: as §6, §7

BPH-1 cells [9] = experiment: Cell cycle analysis (propidium iodide flow cytometry) in BPH-1 cells; conditions: for cell cycle modification: 10 and 20 μM
Experimental: At various time points after treatment with XN and XAL, adherent and floating cells were collected and fixed in 70% ethanol at one million cells per aliqout. Samples were centrifuged at 500×g, washed with PBS, and resuspended in cellular DNA staining solution containing […] propidium iodide (Sigma, St Louis, Mo.) and 100 μg/mL RNase (Sigma, St Louis, Mo.) in PBS. After 30-min incubation at room temperature, cell populations were quantified using Guava personal cytometer. Data analysis was performed using Multi Cycle software (Phoenix Flow Systems, San Diego, Calif.).
In Table 1, Cells were treated with 0, 10 or 20 μM XN or XAL, as indicated, and harvested after 48 h. Attached and floating cells were fixed in 70% ethanol and stained with propidium iodide, and cell cycle kinetics were examined using the Guava PCA, followed by data analysis with Multi-Cycle software.

[10] = Cell viability by MTT assay in BPH-1 cells; conditions: human
Experimental: as §3, §4, §5

[11] = Cell viability by MTT assay in PC-3 cells; conditions: human
Experimental: as §3, §4, §5

Compound | decrease in NFκB activity (NFκB [1]) [%] | cell viability (number of viable cells) (BPH-1 cells [2]) | viability decreased to (BPH-1 cells [2]; concentration of XAL not given) [%] | NFκB activation (NFκB [3]) | cell viability (number of viable cells) (PC-3 cells [4]) | viability decreased to (PC-3 cells [4]; concentration of XAL not given) [%] | SR-VAD-FMK stained cells (caspase activation) (PC-3 cells [5]) | NFκB p65 protein levels in the nuclear fraction (NFκB p65) | Annexin V(+) 7AAD(+) cells (late apoptosis) (BPH-1 cells [6]) | Annexin V(+) 7AAD(−) cells (early apoptosis) (BPH-1 cells [6]) | expression of pro-apoptotic protein Bax [7] | expression of pro-apoptotic protein p53 [7] | expression of anti-apoptotic protein Bcl-2 [7] | SR-VAD-FMK(+) 7AAD(+) cells (late apoptosis) (BPH-1 cells [8]) | SR-VAD-FMK(+) 7AAD(−) cells (caspase activation, early to mid stage apoptosis) (BPH-1 cells [8]) | G1, percentage of cells in phase (BPH-1 cells [9]; 20 μM, 48 h, mean ± SE, n=3) [%] | cell cycle modification (BPH-1 cells [9]) | cytotoxicity at 48 h, 20 μM [10] [%] | cytotoxicity at 48 h, 20 μM [11] [%] | increase in expression of Bax and p53 compared with XAL [7]
COc1cc(O)c(CC=C(C)C)c2c1C(=O)/C(=C/Oc1ccc(O)cc1)O2 [XAL, xanthoaurenol] | 42 | dose-dependent decrease in number of viable | 81 | No inhibition | dose-dependent decrease in number of viable | 55 | increase only in late apoptotic SR-VAD-FMK(+) 7AAD(+) cells | increased | increase | increase | Increase | Increase | decreased expression | increase | increase | 45.730 ± 1.376 | clear accumulation in the S phase |  |  | 
COc1cc(O)c(CC=C(C)C)c(O)c1C(=O)/C=C/c1ccc(O)cc1 [XN, xanthohumol] | 42 | dose-dependent decrease in number of viable |  | No inhibition | dose-dependent decrease in number of viable |  | increase only in late apoptotic SR-VAD-FMK(+) 7AAD(+) cells | increased | increase | increase | Increase | Increase | decreased expression | increase | increase |  | clear accumulation in the S phase | 80 | 43 | larger increase in expression of Bax and p53 than did treatment with XAL
O=C(O[C@@H]1Cc2c(O)cc(O)cc2O[C@@H]1c1cc(O)c(O)c(O)c1)c1cc(O)c(O)c(O)c1 [epigallocatechin gallate, reference compound] |  | did not significantly decrease cell viability |  |  |  |  |  |  |  |  |  |  |  |  |  |  |  |  |  | 
